Experimental data taken from US11001564B2, “Substituted chromane-8-carboxamide compounds and analogues thereof, and methods using same” (priority 2016, dated 2021).
pEC50: −log10 of the molar value. Counter-ions that a name gives are not always drawn. Like-named read-outs stand apart in the source and are kept apart here.

Test system: HBV rcDNA in HepDE19 cells
Assay: HepDE19 assay with bDNA quantitation of HBV rcDNA
Assay type: cell-based, hepatitis B virus (HBV)
Settings: Hepatitis B virus, HepDE19, 168 h
Method: HepDE19 Assay with bDNA Quantitation of HBV rcDNA:
HepDE19 cell culture system is a HepG2 (human hepatocarcinoma) derived cell line that supports HBV DNA replication and cccDNA formation in a tetracycline (Tet)-regulated manner and produces HBV rcDNA and a detectable reporter molecule dependent on the production and maintenance of cccDNA (Guo, et al., 2007, J. Virol. 81:12472-12484).
HepDE19 (50,000 cells/well) were plated in 96 well collagen-coated tissue-culture treated microtiter plates in DMEM/F12 medium supplemented with 10% fetal bovine serum, 1% penicillin-streptomycin and 1 μg/mL tetracycline and incubated in a humidified incubator at 37° C. and 5% CO2 overnight. Next day, the cells were switched to fresh medium without tetracycline and incubated for 4 hours at 37° C. and 5% CO2. The cells were treated with fresh Tet-free medium with compounds at concentrations starting at 25 μM and a serial, ½ log, 8-point, titration series in duplicate. The final DMSO concentration in the assay was 0.5%. The plates were incubated for 7 days in a humidified incubator at 37° C. and 5% CO2. Following a 7 day-incubation, the level of rcDNA present in the inhibitor-treated wells was measured using a Quantigene 2.0 bDNA assay kit (Affymetrix, Santa Clara, Calif.) with HBV specific custom probe set and manufacturers instructions. Concurrently, the effect of compounds on cell viability was assessed using replicate plates, plated at a density of 5,000 cells/well and incubated for 4 days, to determine the ATP content as a measure of cell viability using the cell-titer glo reagent (CTG; Promega Corporation, Madison, Wis.) as per manufacturer's instructions. The plates were read using a Victor luminescence plate reader (PerkinElmer Model 1420 Multilabel counter) and the relative luminescence units (RLU) data generated from each well was calculated as % inhibition of the untreated control wells and analyzed using XL-Fit module in Microsoft Excel to determine EC50 and EC90 (bDNA) and CC50 (CTG) values using a 4-parameter curve fitting algorithm.
Representative compounds of the invention were tested for their ability to inhibit formation of relaxed circular DNA (rcDNA) in a HepDE19 assay, as described elsewhere herein.

[1] = HepDE19 cells, 7 day incubation, rcDNA by Quantigene 2.0 bDNA assay, read-out: DE-19 bDNA EC50
[2] = read-out: DE-19 bDNA EC50, HepDE19 cells, 7 day incubation, rcDNA by Quantigene 2.0 bDNA assay

With `COc1cnc(N[C@H]2CCOc3c(C(=O)Nc4ccc(F)c(F)c4)cccc32)nc1` [Compound 55, (S)—N-(3,4-Difluorophenyl)-4-((5-methoxypyrimidin-2-yl)amino)chromane-8-carboxamide] the pEC50 [1] was 5.70.
`O=C(Nc1ccc(F)c(F)c1)c1c(F)ccc2c1OCC[C@@H]2Nc1ncccn1` [Compound 56, (S)—N-(3,4-Difluorophenyl)-7-fluoro-4-(pyrimidin-2-ylamino)chromane-8-carboxamide] showed a pEC50 [1] of 5.60.
`Cc1ccnc(N[C@H]2CCOc3c(C(=O)Nc4ccc(F)c(F)c4)cccc32)n1` [Compound 57, (S)—N-(3,4-Difluorophenyl)-4-((4-methylpyrimidin-2-yl)amino)chromane-8-carboxamide] gave a pEC50 [1] of 5.47.
For `Cc1cnc(N[C@H]2CCOc3c(C(=O)Nc4ccc(F)c(F)c4)cccc32)nc1` [Compound 58, (S)—N-(3,4-Difluorophenyl)-4-((5-methylpyrimidin-2-yl)amino)chromane-8-carboxamide], the pEC50 [1] was 5.01.
`O=C(N[C@H]1CCOc2c1ccc(F)c2C(=O)Nc1ccc(F)c(F)c1)OCc1ccccn1` [Compound 59, (S)-Pyridin-2-ylmethyl (8-((3,4-difluorophenyl)carbamoyl)-7-fluorochroman-4-yl)carbamate] gave a pEC50 [1] of 5.28.
In the case of `O=C(Nc1ccc(F)c(F)c1)c1ccc(F)c2c1OCCC2=O` [Compound 60, N-(3,4-difluorophenyl)-5-fluoro-4-oxochromane-8-carboxamide], the pEC50 [1] was 5.41.
`C[C@H](OC(=O)N[C@H]1CCOc2c(C(=O)Nc3ccc(F)c(F)c3)cccc21)c1ccccn1` [Compound 61, (S)-1-(Pyridin-2-yl)ethyl ((S)-8-((3,4-difluorophenyl)carbamoyl)chroman-4-yl)carbamate hydrochloride] showed a pEC50 [2] of 5.40.
For `O=C(Nc1ccc(F)c(F)c1)c1cccc2c1OCCC2c1ccccc1` (stereo not drawn) [Compound 62, N-(3,4-difluorophenyl)-4-phenylchromane-8-carboxamide], the pEC50 [1] was 5.31.
`O=C(Nc1ccc(F)c(F)c1)c1cccc2c1OCCC2c1cccnc1` (stereo not drawn) [Compound 63, N-(3,4-difluorophenyl)-4-(pyridin-3-yl)chromane-8-carboxamide] showed a pEC50 [1] of 4.85.
Compound `O=C1CCOc2c1ccc(F)c2C(=O)Nc1ccc(F)c(F)c1` [Compound 64, N-(3,4-difluorophenyl)-7-fluoro-4-oxochromane-8-carboxamide] has a pEC50 [1] of 5.42.
With `O=C1CCOc2c1ccc(F)c2C(=O)Nc1ccc(F)c(Cl)c1` [Compound 65, N-(3-chloro-4-fluorophenyl)-7-fluoro-4-oxochromane-8-carboxamide] the pEC50 [1] was 5.39.
Work on `O=C(N[C@H]1CCOc2c(C(=O)Nc3ccc(F)c(F)c3)cccc21)OCc1ccncn1` [Compound 66, Pyrimidin-4-ylmethyl (S)-(8-((3,4-difluorophenyl)carbamoyl)chroman-4-yl)carbamate] yielded a pEC50 [1] of 5.46.
`O=C(Nc1ccc(F)c(F)c1)c1cccc2c1OCC[C@@H]2Nc1ccncn1` [Compound 67, (S)—N-(3,4-Difluorophenyl)-4-(pyrimidin-4-ylamino)chromane-8-carboxamide] was tested, and the pEC50 [1] was 5.44.
In the case of `O=C(Nc1ccc(F)c(F)c1)c1cccc2c1OCCC2c1ccccn1` (stereo not drawn) [Compound 68, N-(3,4-difluorophenyl)-4-(pyridin-2-yl)chromane-8-carboxamide], the pEC50 [1] was 5.47.
With `O=C(Nc1ccc(F)c(F)c1)c1cccc2c1OCCC2c1ncccn1` (stereo not drawn) [Compound 71, N-(3,4-difluorophenyl)-4-(pyrimidin-2-yl)chromane-8-carboxamide] the pEC50 [1] was 4.92.
`Cn1ccc(COC(=O)N[C@H]2CCOc3c(C(=O)Nc4ccc(F)c(F)c4)cccc32)n1` [Compound 72, (1-Methyl-1H-pyrazol-3-yl)methyl (S)-(8-((3,4-difluorophenyl)carbamoyl)chroman-4-yl)carbamate] was tested, and the pEC50 [1] was 5.70.
In the case of `COC(=O)N[C@H]1CCOc2c1ccc(F)c2C(=O)Nc1ccc(F)c(Cl)c1` [Compound 74, (S)-Methyl (8-((3-chloro-4-fluorophenyl)carbamoyl)-7-fluorochroman-4-yl)carbamate], the pEC50 [2] was 5.72.
With `CNC(=O)N[C@H]1CCOc2c1ccc(F)c2C(=O)Nc1ccc(F)c(Cl)c1` [Compound 75, (S)—N-(3-Chloro-4-fluorophenyl)-7-fluoro-4-(3-methylureido)chromane-8-carboxamide] the pEC50 [2] was 5.49.
`O=C(N[C@H]1CCOc2c1ccc(F)c2C(=O)Nc1ccc(F)c(Cl)c1)OCc1ccccn1` [Compound 76, (S)-Pyridin-2-ylmethyl (8-((3-chloro-4-fluorophenyl)carbamoyl)-7-fluorochroman-4-yl)carbamate] gave a pEC50 [1] of 5.72.
`O=C1CCOc2c1ccc(Cl)c2C(=O)Nc1ccc(F)c(F)c1` [Compound 77, 7-chloro-N-(3,4-difluorophenyl)-4-oxochromane-8-carboxamide] showed a pEC50 [1] of 4.64.
With `O=C(Nc1ccc(F)c(F)c1)c1ccc(Cl)c2c1OCCC2=O` [Compound 78, 5-chloro-N-(3,4-difluorophenyl)-4-oxochromane-8-carboxamide] the pEC50 [1] was 5.14.
`O=C(Nc1ccc(F)c(Cl)c1)c1ccc(F)c2c1OCCC2=O` [Compound 79, N-(3-chloro-4-fluorophenyl)-5-fluoro-4-oxochromane-8-carboxamide] gave a pEC50 [1] of 5.28.
`COc1ccnc(COC(=O)N[C@H]2CCOc3c(C(=O)Nc4ccc(F)c(F)c4)cccc32)c1` [Compound 80, (4-Methoxypyridin-2-yl)methyl (S)-(8-((3,4-difluorophenyl)carbamoyl)chroman-4-yl)carbamate hydrochloride] gave a pEC50 [2] of 5.57.
`O=C(N[C@H]1CCOc2c(C(=O)Nc3ccc(F)c(F)c3)cccc21)OCc1cnccn1` [Compound 81, Pyrazin-2-ylmethyl (S)-(8-((3,4-difluorophenyl)carbamoyl)chroman-4-yl)carbamate] was tested, and the pEC50 [1] was 5.62.
`O=C(N[C@H]1CCOc2c(C(=O)Nc3ccc(F)c(F)c3)cccc21)OCc1cc(Cl)ccn1` [Compound 82, (4-Chloropyridin-2-yl)methyl (S)-(8-((3,4-difluorophenyl)carbamoyl)chroman-4-yl)carbamate hydrochloride] showed a pEC50 [2] of 5.49.
Compound `COC(=O)N[C@H]1CCOc2c1ccc(Cl)c2C(=O)Nc1ccc(F)c(F)c1` [Compound 83, Methyl (S)-(7-chloro-8-((3,4-difluorophenyl)carbamoyl)chroman-4-yl)carbamate] has a pEC50 [2] of 5.27.
Work on `CNC(=O)N[C@H]1CCOc2c1ccc(Cl)c2C(=O)Nc1ccc(F)c(F)c1` [Compound 84, (S)-7-Chloro-N-(3,4-difluorophenyl)-4-(3-methylureido)chromane-8-carboxamide] yielded a pEC50 [2] of 4.96.
`O=C(N[C@H]1CCOc2c(C(=O)Nc3ccc(F)c(F)c3)cccc21)OCc1ccc(Cl)cn1` [Compound 88, (5-Chloropyridin-2-yl)methyl (S)-(8-((3,4-difluorophenyl)carbamoyl)chroman-4-yl)carbamate hydrochloride] was tested, and the pEC50 [2] was 4.89.
Work on `O=C(Nc1ccc(F)c(F)c1)c1ccc(F)c2c1OCC[C@@H]2Nc1ncccn1` [Compound 89, (S)—N-(3,4-Difluorophenyl)-5-fluoro-4-(pyrimidin-2-ylamino)chromane-8-carboxamide] yielded a pEC50 [1] of 5.96.
With `O=C(N[C@H]1CCOc2c1ccc(Cl)c2C(=O)Nc1ccc(F)c(F)c1)OCc1ccccn1` [Compound 90, Pyridin-2-ylmethyl (S)-(7-chloro-8-((3,4-difluorophenyl)carbamoyl)chroman-4-yl)carbamate] the pEC50 [1] was 5.08.
